{"source": "the supplement of paper PMC10307832", "experiment_in_all_cases": "relative viability (nuclei count vs DMSO), 5 days (fraction); higher = more cells survive", "key": {"[1]": {"tested_on": "A-427", "in_short": "(§1)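 Relative viability divides the nuclei count in treated wells by that in vehicle wells. Lung cancer cell lines were seeded in 1536-well plates, dosed by pin tool the next day, and fixed and stained after 5 days in one step with final 0.05% Triton X-100, 1% formaldehyde and 1 ug/ml Hoechst. Dosing was a single drug or a fixed anchor-drug dose plus five library-drug doses (not always all listed) in √10 steps, and values are medians of duplicate plates imaged at 4×.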"}, "[2]": {"tested_on": "CAL-12T", "in_short": "as §1"}, "[3]": {"tested_on": "COR-L 105", "in_short": "as §1"}, "[4]": {"tested_on": "EMC-BAC-2", "in_short": "as §1"}, "[5]": {"tested_on": "HARA", "in_short": "as §1"}, "[6]": {"tested_on": "HCC-366", "in_short": "as §1"}, "[7]": {"tested_on": "HCC-827", "in_short": "as §1"}, "[8]": {"tested_on": "HOP-62", "in_short": "as §1"}, "[9]": {"tested_on": "LCLC-103H", "in_short": "as §1"}, "[10]": {"tested_on": "NCI-H1395", "in_short": "as §1"}, "[11]": {"tested_on": "NCI-H1437", "in_short": "as §1"}, "[12]": {"tested_on": "NCI-H1755", "in_short": "as §1"}, "[13]": {"tested_on": "NCI-H1792", "in_short": "as §1"}, "[14]": {"tested_on": "NCI-H1915", "in_short": "as §1"}, "[15]": {"tested_on": "NCI-H2009", "in_short": "as §1"}, "[16]": {"tested_on": "NCI-H2228", "in_short": "as §1"}, "[17]": {"tested_on": "NCI-H23", "in_short": "as §1"}, "[18]": {"tested_on": "NCI-H460", "in_short": "as §1"}, "[19]": {"tested_on": "NCI-H522", "in_short": "as §1"}, "[20]": {"tested_on": "NCI-H727", "in_short": "as §1"}, "[21]": {"tested_on": "SK-LU-1", "in_short": "as §1"}, "[22]": {"tested_on": "SW 1573", "in_short": "as §1"}}}
{"smiles": "Cc1sc2c(c1C)C(c1ccc(Cl)cc1)=N[C@@H](CC(=O)OC(C)(C)C)c1nnc(C)n1-2", "note": "[JQ1] + O=C(c1cc(Cc2n[nH]c(=O)c3ccccc23)ccc1F)N1CCN(C(=O)C2CC2)CC1 [Olaparib] (partner 8 µM)", "values": [{"measurement": "relative viability", "setting": "[1]; first compound 0.04 µM", "result": 0.693}, {"measurement": "relative viability", "setting": "[1]; first compound 0.1265 µM", "result": 0.72}, {"measurement": "relative viability", "setting": "[1]; first compound 0.4 µM", "result": 0.83}, {"measurement": "relative viability", "setting": "[1]; first compound 1.265 µM", "result": 0.709}, {"measurement": "relative viability", "setting": "[1]; first compound 4 µM", "result": 0.418}, {"measurement": "relative viability", "setting": "[2]; first compound 0.04 µM", "result": 0.715}, {"measurement": "relative viability", "setting": "[2]; first compound 0.1265 µM", "result": 0.823}, {"measurement": "relative viability", "setting": "[2]; first compound 0.4 µM", "result": 0.595}, {"measurement": "relative viability", "setting": "[2]; first compound 1.265 µM", "result": 0.34}, {"measurement": "relative viability", "setting": "[2]; first compound 4 µM", "result": 0.272}, {"measurement": "relative viability", "setting": "[3]; first compound 0.04 µM", "result": 0.624}, {"measurement": "relative viability", "setting": "[3]; first compound 0.1265 µM", "result": 0.497}, {"measurement": "relative viability", "setting": "[3]; first compound 0.4 µM", "result": 0.385}, {"measurement": "relative viability", "setting": "[3]; first compound 1.265 µM", "result": 0.329}, {"measurement": "relative viability", "setting": "[3]; first compound 4 µM", "result": 0.351}, {"measurement": "relative viability", "setting": "[4]; first compound 0.04 µM", "result": 0.447}, {"measurement": "relative viability", "setting": "[4]; first compound 0.1265 µM", "result": 0.433}, {"measurement": "relative viability", "setting": "[4]; first compound 0.4 µM", "result": 0.391}, {"measurement": "relative viability", "setting": "[4]; first compound 1.265 µM", "result": 0.32}, {"measurement": "relative viability", "setting": "[4]; first compound 4 µM", "result": 0.259}, {"measurement": "relative viability", "setting": "[5]; first compound 0.04 µM", "result": 0.739}, {"measurement": "relative viability", "setting": "[5]; first compound 0.1265 µM", "result": 0.484}, {"measurement": "relative viability", "setting": "[5]; first compound 0.4 µM", "result": 0.321}, {"measurement": "relative viability", "setting": "[5]; first compound 1.265 µM", "result": 0.308}, {"measurement": "relative viability", "setting": "[5]; first compound 4 µM", "result": 0.18}, {"measurement": "relative viability", "setting": "[6]; first compound 0.04 µM", "result": 0.349}, {"measurement": "relative viability", "setting": "[6]; first compound 0.4 µM", "result": 0.197}, {"measurement": "relative viability", "setting": "[6]; first compound 1.265 µM", "result": 0.102}, {"measurement": "relative viability", "setting": "[6]; first compound 4 µM", "result": 0.0747}, {"measurement": "relative viability", "setting": "[7]; first compound 0.04 µM", "result": 0.622}, {"measurement": "relative viability", "setting": "[7]; first compound 0.1265 µM", "result": 0.477}, {"measurement": "relative viability", "setting": "[7]; first compound 1.265 µM", "result": 0.596}, {"measurement": "relative viability", "setting": "[7]; first compound 4 µM", "result": 0.363}, {"measurement": "relative viability", "setting": "[8]; first compound 0.04 µM", "result": 0.306}, {"measurement": "relative viability", "setting": "[8]; first compound 0.1265 µM", "result": 0.285}, {"measurement": "relative viability", "setting": "[8]; first compound 0.4 µM", "result": 0.18}, {"measurement": "relative viability", "setting": "[8]; first compound 1.265 µM", "result": 0.114}, {"measurement": "relative viability", "setting": "[8]; first compound 4 µM", "result": 0.115}, {"measurement": "relative viability", "setting": "[9]; first compound 0.04 µM", "result": 0.789}, {"measurement": "relative viability", "setting": "[9]; first compound 0.1265 µM", "result": 0.714}, {"measurement": "relative viability", "setting": "[9]; first compound 0.4 µM", "result": 0.605}, {"measurement": "relative viability", "setting": "[9]; first compound 1.265 µM", "result": 0.528}, {"measurement": "relative viability", "setting": "[9]; first compound 4 µM", "result": 0.432}, {"measurement": "relative viability", "setting": "[10]; first compound 0.04 µM", "result": 0.489}, {"measurement": "relative viability", "setting": "[10]; first compound 0.1265 µM", "result": 0.452}, {"measurement": "relative viability", "setting": "[10]; first compound 0.4 µM", "result": 0.449}, {"measurement": "relative viability", "setting": "[10]; first compound 1.265 µM", "result": 0.378}, {"measurement": "relative viability", "setting": "[10]; first compound 4 µM", "result": 0.356}, {"measurement": "relative viability", "setting": "[11]; first compound 0.04 µM", "result": 0.595}, {"measurement": "relative viability", "setting": "[11]; first compound 0.1265 µM", "result": 0.572}, {"measurement": "relative viability", "setting": "[11]; first compound 0.4 µM", "result": 0.519}, {"measurement": "relative viability", "setting": "[11]; first compound 1.265 µM", "result": 0.29}, {"measurement": "relative viability", "setting": "[11]; first compound 4 µM", "result": 0.279}, {"measurement": "relative viability", "setting": "[12]; first compound 0.04 µM", "result": 0.887}, {"measurement": "relative viability", "setting": "[12]; first compound 0.1265 µM", "result": 0.824}, {"measurement": "relative viability", "setting": "[12]; first compound 0.4 µM", "result": 0.806}, {"measurement": "relative viability", "setting": "[12]; first compound 1.265 µM", "result": 0.644}, {"measurement": "relative viability", "setting": "[12]; first compound 4 µM", "result": 0.611}, {"measurement": "relative viability", "setting": "[13]; first compound 0.04 µM", "result": 0.378}, {"measurement": "relative viability", "setting": "[13]; first compound 0.1265 µM", "result": 0.266}, {"measurement": "relative viability", "setting": "[13]; first compound 0.4 µM", "result": 0.392}, {"measurement": "relative viability", "setting": "[13]; first compound 1.265 µM", "result": 0.139}, {"measurement": "relative viability", "setting": "[13]; first compound 4 µM", "result": 0.0406}, {"measurement": "relative viability", "setting": "[14]; first compound 0.04 µM", "result": 0.23}, {"measurement": "relative viability", "setting": "[14]; first compound 0.4 µM", "result": 0.184}, {"measurement": "relative viability", "setting": "[14]; first compound 1.265 µM", "result": 0.138}, {"measurement": "relative viability", "setting": "[14]; first compound 4 µM", "result": 0.107}, {"measurement": "relative viability", "setting": "[15]; first compound 0.04 µM", "result": 0.689}, {"measurement": "relative viability", "setting": "[15]; first compound 0.1265 µM", "result": 0.548}, {"measurement": "relative viability", "setting": "[15]; first compound 0.4 µM", "result": 0.545}, {"measurement": "relative viability", "setting": "[15]; first compound 1.265 µM", "result": 0.198}, {"measurement": "relative viability", "setting": "[15]; first compound 4 µM", "result": 0.152}, {"measurement": "relative viability", "setting": "[16]; first compound 0.04 µM", "result": 0.628}, {"measurement": "relative viability", "setting": "[16]; first compound 0.1265 µM", "result": 0.434}, {"measurement": "relative viability", "setting": "[16]; first compound 0.4 µM", "result": 0.356}, {"measurement": "relative viability", "setting": "[16]; first compound 1.265 µM", "result": 0.123}, {"measurement": "relative viability", "setting": "[16]; first compound 4 µM", "result": 0.181}, {"measurement": "relative viability", "setting": "[17]; first compound 0.04 µM", "result": 0.329}, {"measurement": "relative viability", "setting": "[17]; first compound 0.1265 µM", "result": 0.341}, {"measurement": "relative viability", "setting": "[17]; first compound 0.4 µM", "result": 0.162}, {"measurement": "relative viability", "setting": "[17]; first compound 1.265 µM", "result": 0.179}, {"measurement": "relative viability", "setting": "[17]; first compound 4 µM", "result": 0.127}, {"measurement": "relative viability", "setting": "[18]; first compound 0.04 µM", "result": 0.43}, {"measurement": "relative viability", "setting": "[18]; first compound 0.1265 µM", "result": 0.336}, {"measurement": "relative viability", "setting": "[18]; first compound 0.4 µM", "result": 0.179}, {"measurement": "relative viability", "setting": "[18]; first compound 1.265 µM", "result": 0.124}, {"measurement": "relative viability", "setting": "[18]; first compound 4 µM", "result": 0.0676}, {"measurement": "relative viability", "setting": "[19]; first compound 0.04 µM", "result": 0.577}, {"measurement": "relative viability", "setting": "[19]; first compound 0.1265 µM", "result": 0.674}, {"measurement": "relative viability", "setting": "[19]; first compound 0.4 µM", "result": 0.453}, {"measurement": "relative viability", "setting": "[19]; first compound 1.265 µM", "result": 0.388}, {"measurement": "relative viability", "setting": "[19]; first compound 4 µM", "result": 0.344}, {"measurement": "relative viability", "setting": "[20]; first compound 0.04 µM", "result": 0.668}, {"measurement": "relative viability", "setting": "[20]; first compound 0.1265 µM", "result": 0.759}, {"measurement": "relative viability", "setting": "[20]; first compound 0.4 µM", "result": 0.599}, {"measurement": "relative viability", "setting": "[20]; first compound 1.265 µM", "result": 0.555}, {"measurement": "relative viability", "setting": "[20]; first compound 4 µM", "result": 0.497}, {"measurement": "relative viability", "setting": "[21]; first compound 0.04 µM", "result": 0.452}, {"measurement": "relative viability", "setting": "[21]; first compound 0.1265 µM", "result": 0.358}, {"measurement": "relative viability", "setting": "[21]; first compound 0.4 µM", "result": 0.374}, {"measurement": "relative viability", "setting": "[21]; first compound 1.265 µM", "result": 0.153}, {"measurement": "relative viability", "setting": "[21]; first compound 4 µM", "result": 0.124}, {"measurement": "relative viability", "setting": "[22]; first compound 0.04 µM", "result": 0.428}, {"measurement": "relative viability", "setting": "[22]; first compound 0.1265 µM", "result": 0.317}, {"measurement": "relative viability", "setting": "[22]; first compound 0.4 µM", "result": 0.344}, {"measurement": "relative viability", "setting": "[22]; first compound 1.265 µM", "result": 0.211}, {"measurement": "relative viability", "setting": "[22]; first compound 4 µM", "result": 0.178}]}
